Patent US9006451B1, “2-anilinonicotinyl based chalcones useful as potential anticancer agents and process for preparation thereof” (Council of Scientific and Industrial Research, priority 2013, dated 2015)

Legend:
[1] = tested on: HL-60(TB); experiment: NCI 60 human tumor cell line screen (SRB): HL-60(TB); format: cell-based; settings: Leukemia, 48 hours, read-out: GI50 values (μM conc.)
Protocol: (§1) The in vitro anticancer activity studies for these chalcone analogues were carried out at the National Cancer Institute, USA.
(§2) The chalcone compounds have been tested at NCI, USA, against sixty human tumor cell lines derived from nine cancer types (leukemia, non-small cell lung cancer, colon cancer, CNS cancer, melanoma cancer, ovarian cancer, renal cancer, prostate cancer and breast cancer). For these compounds results are expressed as growth inhibition (GI50) values as per NCI protocol.
(§3) We describe here the development and implementation of a pilot-scale, in vitro, anticancer drug screen utilizing a panel of 60 human tumor cell lines organized into subpanels representing leukemia, melanoma, and cancers of the lung, colon, kidney, ovary, and central nervous system. The ultimate goal of this disease-oriented screen is to facilitate the discovery of new compounds with potential cell line-specific and/or subpanel-specific antitumor activity. In the current screening protocol, each cell line is inoculated onto microtiter plates, then preincubated for 28 hours. Subsequently, test agents are added in five 10-fold dilutions and the culture is incubated for an additional 48 hours. For each test agent, a dose-response profile is generated. End-point determinations of the cell viability or cell growth are performed by in situ fixation of cells, followed by staining with a protein-binding dye, sulforhodamine B (SRB). The SRB binds to the basic amino acids of cellular macromolecules; the solubilized stain is measured spectrophotometrically to determine relative cell growth or viability in treated and untreated cells.

[2] = tested on: K-562; experiment: NCI 60 human tumor cell line screen (SRB): K-562; format: cell-based; settings: K562, K-562, Leukemia, 48 hours, read-out: GI50 values (μM conc.)
Protocol: as §1, §2
as §3, with “For each test agent, a dose-response profile is generated. End-point determinations of the cell viability or cell growth are performed by in situ fixation of cells, followed by staining with a protein-binding dye, sulforhodamine B (SRB).” left out

Row | SMILES | GI50 [1] [µM] | melting point [°C] | GI50 [2] [µM]
1 | COc1cc(Nc2ncccc2/C=C/C(=O)c2cc(OC)c(OC)c(OC)c2)cc(OC)c1OC [6v, (E)-1-(3,4,5-Trimethoxyphenyl)-3-(2-(3,4,5-trimethoxyphenylamino)pyridin-3-yl)prop-2-en-1-one] | 8 | – | –
2 | COc1cc(C(=O)/C=C/c2cccnc2Nc2ccccc2)cc(OC)c1OC [6a, (E)-3-(2-(Phenylamino)pyridin-3-yl)-1-(3,4,5-trimethoxyphenyl)prop-2-en-1-one] | 1.52 | 125 to 128 | –
3 | COc1ccc(Nc2ncccc2/C=C/C(=O)c2cc(OC)c(OC)c(OC)c2)cc1 [6h, (E)-3-(2-(4-Methoxyphenylamino)pyridin-3-yl)-1-(3,4,5-trimethoxyphenyl)prop-2-en-1-one] | – | – | 0.78
4 | COc1cc(/C=C/C(=O)c2cccnc2Nc2ccc(F)cc2)cc(OC)c1OC [7f, (E)-1-(2-(4-Fluorophenylamino)pyridin-3-yl)-3-(3,4,5-trimethoxyphenyl)prop-2-en-1-one] | 2.4 | – | –
5 | COc1ccc(C(=O)/C=C/c2cccnc2Nc2cc(OC)c(OC)c(OC)c2)cc1 [6z, (E)-1-(4-Methoxyphenyl)-3-(2-(3,4,5-trimethoxyphenylamino)pyridin-3-yl)prop-2-en-1-one] | 1.27 | – | –
6 | COc1cc(C(=O)/C=C/c2cccnc2Nc2ccc(Cl)cc2)cc(OC)c1OC [6ax, (E)-3-(2-(4-Chlorophenylamino)pyridin-3-yl)-1-(3,4,5-trimethoxyphenyl)prop-2-en-1-one] | 1.59 | – | –
